“And” between values parts separate entries of the source, which are not always exact repeats. Identical values can stand only once. Like-named read-outs stand apart in the source and are kept apart here. Values belong to the molecule of their own block, whether it stands above or below them.
Legend:
[1] = bile salts; cited from earlier work
[2] = Subcutaneous GLP-1 in fasting subjects (study by M. A. Nauck, FIG. 6), regression analysis; format: in vivo, human (fasting subjects)
Source text: This could be due to changes in bioavailability with dose, changes in clearance with dose, or a combination of both effects.

[3] = intravenous infusion, fasting individuals; cited from earlier work
[4] = in vivo; cited from earlier work
[5] = Buccal bilayer tablet, double-blind placebo-controlled crossover: blood glucose, plasma insulin and glucagon; format: in vivo, human (healthy volunteers)
Source text: (§1) This example describes a double-blind, placebo-controlled, crossover comparison with random assignment to treatment sequence. […] Inclusion criteria for the volunteers were normal glucose tolerance, weight within 22<BMI<26, informed consent to participate in the study, and age between 20 and 60 years. Exclusion criteria were impaired glucose tolerance (2-hour glucose tolerance test; OGTT), gastrointestinal symptoms, ongoing medication or illness, acute infection, abnormal laboratory variables (hemoglobin, hematocrit, leucocytes, creatinine, bilirubin, calcium, potassium, sodium, alkaline phosphatase, gamma-GT, SGOT, SGPT, cholesterol, and triglycerides), and blood pressure greater than 185 mmHg systolic and/or 90 mmHg diastolic.
Subject numbers were allotted to the subjects in the order in which they were enrolled in the study. The number allotted to each subject determined the treatment sequence received. Subjects receiving treatment sequence 1 were treated with drug followed by placebo, and subjects receiving treatment sequence 2 were treated with placebo followed by drug.
(§2) Subjects were instructed to fast the night before a treatment. At the clinic, the subjects were given either a drug-containing bilayer tablet or placebo. At time 0 the bilayer tablet was applied to the gingiva with the active layer in contact with the tissue of the lip or inside of the cheek, and the subjects were placed in a rest position. The bilayer tablet was removed after 4.5 hours. No meals were allowed until a standard meal was given after 4.5 hours, and snacks were not permitted at any time. The standard meal contained 550 kcal, with 28%, 22%, and 50% of the energy from protein, fat, and carbohydrate, respectively. The test continued until 8 hours after application of the bilayer tablet, and the subjects left the hospital after 9 hours. The subjects were given their medications in the clinic by a nurse and were under observation at all times. Any symptoms or sensations disturbing or impairing the subjects' wellbeing during the experiments was carefully documented. Standard safety variables were determined under fasting conditions before each experiment. Blood glucose was monitored frequently and glucose infusion was available in case of hypoglycemia (<2.5 mmol/L). If any subject were to experience hypoglycemic symptoms, an extra blood glucose determination would be taken for safety reasons A washout period of 1-4 days was allowed between each experiment The study was completed within 6 weeks after enrollment of the first volunteer.
(§3) The peptide content of bilayer tablet samples was also analyzed by HPLC. […] Results were tested for normal distribution. A two-tailed t-test was carried out for normally distributed samples, and a Wilcoxon rank-sum test was used for data that were not normally distributed. All statistical tests used a level of significance of 0.05.

[6] = Plasma GLP-1(7-36)amide pharmacokinetics after buccal bilayer tablet; format: in vivo, human (healthy volunteers)
Source text: as §1, §2, §3
This was done in comparison to published data.
The data summarized in FIG. 5 were analyzed by AUC to provide an estimate of relative bioavailability by buccal administration as compared to subcutaneous administration.

[7] = Buccal delivery of salmon calcitonin in dogs; format: in vivo, dog (mongrel dogs); design: AUC infinity, buccal / AUC infinity, iv: concentration or dose not given beside the values
Method: (§4) Bilayer tablets prepared according to Examples 13-15 were tested in in vivo experiments to determine their effectiveness in delivering peptide X systemically to dogs. Mongrel dogs each weighing 30-35 kg were conditioned for one month prior to use. The dogs were mildly sedated with acepromazine, but were awake for the duration of each experiment. Tablets were attached to the gingiva with the active layer contacting and in drug transfer relationship to the buccal mucosa of the upper lip. Nylon muzzles were used to prevent the animals from licking the tablets. In this model, normal salivary functions were preserved and no irrigation was required. The saphenous vein was catheterized to permit venous blood sampling. Blood samples were collected into citrate "[…]" tubes and immediately chilled on ice for 15 minutes and then centrifuged for 10 minutes at 3400 rpm. The resultant supernatant plasma was then collected and stored in capped polypropylene tubes at -70° C. until analyzed for peptide X content.
The procedure of Example 16 was followed with the exception that salmon calcitonin was substituted for peptide X, and tablet sizes and numbers were varied in some experiments.

[8] = colon of a baboon, cited from earlier work
[9] = Buccal delivery of insulin in dogs: blood glucose; format: in vivo, dog (mongrel dogs); settings: 5 U/kg
Method: as §4
The procedure of Example 16 was followed with insulin-containing tablets prepared according to Example 6. The results shown in FIG. 8 are the average of 4 dogs, each given one 0.375 inch diameter buccal tablet containing 5 U/kg of drug. […] Beginning about 60 minutes after application, the blood glucose levels start to rise again, reaching normal levels about 120 minutes after application.

[10] = buccal bilayer tablet, 400 μg, FIG. 3
[11] = buccal bilayer tablet, 400 μg, FIG. 4
[12] = buccal bilayer tablet, 400 μg, fasting, FIG. 2
[13] = buccal bilayer tablet, 400 μg, FIG. 5
[14] = individual subjects 901-908 and mean, buccal, dose 119 nmol
[15] = average of 4 dogs, one 0.375 inch buccal tablet, FIG. 8

Molecule: C[C@H](CCC(=O)O)[C@H]1CC[C@H]2[C@@H]3[C@H](O)C[C@@H]4C[C@H](O)CC[C@]4(C)[C@H]3CC[C@]12C [chenodeoxycholate]
Order of effectiveness in enhancing nasal absorption of insulin [1]: deoxycholate≤chenodeoxycholate≤cholate≤ursodeoxychola te

Molecule: C[C@H](CCC(=O)O)[C@H]1CC[C@H]2[C@@H]3[C@H](O)C[C@@H]4C[C@H](O)CC[C@]4(C)[C@H]3C[C@H](O)[C@]12C [cholate]
Order of effectiveness in enhancing nasal absorption of insulin [1]: deoxycholate≤chenodeoxycholate≤cholate≤ursodeoxychola te

Molecule: C[C@H](CCC(=O)O)[C@H]1CC[C@H]2[C@@H]3[C@@H](O)C[C@@H]4C[C@H](O)CC[C@]4(C)[C@H]3CC[C@]12C [ursodeoxychola te]
Order of effectiveness in enhancing nasal absorption of insulin [1]: deoxycholate≤chenodeoxycholate≤cholate≤ursodeoxychola te

Bioavailability by subcutaneous administration relative to intravenous administration ([2]; fasting subjects): 38% | Clearance ([2]; subcutaneous, regression analysis of all the results): about 40 ml/min/kg
Molecule: GLP-1
Clearance [3]: ~15 mL/min/kg

Molecule: GLP-1(7-36)amide: gastrointestinal hormone processed from the preproglucagon gene; the naturally occurring form in humans
Effect on glucose-induced insulin release [4]: potentiates glucose-induced insulin release | Plasma glucagon level at its low compared to placebo ([5]; about 30 minutes, buccal bilayer tablet, 400 μg, FIG. 4): significantly lower than the placebo group | Plasma glucagon level at its peak compared to placebo ([5]; after the low, buccal bilayer tablet, 400 μg, FIG. 4): significantly higher than the placebo group | Start of rise of plasma insulin level [5, 10]: 10 min | Time of decline of plasma insulin to normal [5, 10]: about 50 minutes | Time of peak plasma insulin level [5, 10]: about 20 minutes | Time from which plasma glucagon tracks the placebo group [5, 11]: about 150 minutes | Time of low of plasma glucagon level [5, 11]: about 30 minutes | Time of peak of plasma glucagon level [5, 11]: 60 to 75 min | Blood glucose levels compared to placebo controls ([5]; buccal bilayer tablet, 400 μg, fasting): significantly reduced blood glucose levels as compared to placebo controls | Lowest blood glucose level [5, 12]: about 3 mmol/L | Time by which blood glucose drops below that of the placebo group [5, 12]: ≤ 20 min | Time of lowest blood glucose level [5, 12]: about 50 minutes | Time of return of blood glucose to a normal level [5, 12]: about 90 minutes | Blood glucose levels of the two groups after the meal ([5]; drug vs placebo, after standard meal at 4.5 hours): indistinguishable after the meal | Plasma insulin level at 15 minutes after administration ([5]; relative to normal, buccal bilayer tablet, 400 μg, FIG. 3): about three time normal | Plasma GLP-1(7-36)amide level after the meal compared to placebo ([6]; after standard meal at 4.5 hours): approximately the same as that of the placebo group | Absorption through the buccal mucosa into the bloodstream ([6]; buccal bilayer tablet, 400 μg): rapid absorption through the buccal mucosa into the bloodstream | Start of rise of plasma GLP-1(7-36)amide level [6, 13]: ≤ 5 min | Time from which plasma GLP-1(7-36)amide tracks the placebo group [6, 13]: about 150 minutes | Time of peak plasma GLP-1(7-36)amide level [6, 13]: about 30 minutes | Time until which plasma GLP-1(7-36)amide declines rapidly [6, 13]: about 90 minutes | AUC [6, 14]: 11343 pmol·min/L and 3278 pmol·min/L and 8024 pmol·min/L and 9113 pmol·min/L and 7250 pmol·min/L and 8753 pmol·min/L and 8410 pmol·min/L | Bioavailability [6, 14]: 10.01% and 2.89% and 7.08% and 6.40% and 7.72% and 7.42% | Dose (second Dose column) [6, 14]: 11.91 nmol and 3.44 nmol and 9.57 nmol and 7.61 nmol and 9.19 nmol and 8.83 nmol

AUC infinity, buccal ([7]; individual dogs (Dog ID#), 2 tablets, first figure of "buc/iv"): 139 and 66 and 84 and 26 and 64 and 38 | AUC infinity, iv ([7]; individual dogs (Dog ID#), second figure of "buc/iv"): 76 and 159 and 106 and 87
Molecule: Salmon Calcitonin
Buccal delivery into the bloodstream ([7]; bilayer tablet): delivered into the bloodstream of a warm-blooded animal by buccal delivery | ng Absorbed ([7]; individual dogs (Dog ID#), 2 buccal tablets, 1.27 or 0.71 cm^2): 72,958 ng and 16,461 ng and 20,989 ng and 6,535 ng and 23,379 ng and 17,614 ng

Molecule: heparin
Activity with bile salts in the formulation ([8]; with sodium cholate or deoxycholate): significant activity is detected | Transmucosal intestinal delivery (partial thromboplastin time prolongation or plasma lipase release) ([8]; without bile salt): not apparent

Molecule: insulin: insulin-containing tablets prepared according to Example 6 (human insulin)
Start of rise of blood glucose [9, 15]: about 60 minutes | Start of sharp drop of blood glucose [9, 15]: about 15 minutes | Time of low level of blood glucose [9, 15]: about 40 minutes | Time of return of blood glucose to normal levels [9, 15]: about 120 minutes | Control of blood glucose levels ([9]; buccal delivery): effective in controlling blood glucose levels
